Patent US20170056379A1, “METHOD OF USING DOPAMINE REUPTAKE INHIBITORS AND THEIR ANALOGS FOR TREATING DIABETES SYMPTOMS AND DELAYING OR […]-[…]” (CALIPER LIFE SCIENCES, INC., priority 2009, published 2017)
“Also recorded” adds a separate entry of the source.

What was measured:
Format in all cases: in vivo
FVB strain of mice [1] = experiment: Mediation of hyperglycemic conditions: blood glucose and body mass in high fat diet mice; settings: 10 mg/kg p.o. daily six days a week, after 4 weeks of treatment
Source text: Mediation of hyperglycemic conditions—FVB strain of mice were used in this study. In our previous study (unpublished), we noted that the FVB strain provides a broad phenotypic window for most parameters of human diabetic conditions similar to C57B1/6. For instance, there was a noted weight gain and obesity induced with high and intermediate fat diets. A persistent high fat diet induces relatively robust hyperglycemic conditions and inefficient glucose disposal but with little noted effects on metabolic rate. There is little circadian impact and changes in activity patterns with the high fat diet.
Twenty FVB mice (˜12 weeks of age) were randomly separated into two groups (n=10). One group (of ten mice) was fed a high fat diet (ResearchDiets, New Brunswick, N.J., and Cat. #D12492); with the following caloric components: 20 percent protein; 20 percent carbohydrate; and 60 percent fat; 5.24 kcal/gram. Another group was fed with regular rodent chow (Labdiet, Richmond, Ind., product code 5010); 28.7 percent protein, 12.7 percent fat, and 58.6 percent carbohydrate; 3.43 kcal/gram. After seven-weeks, blood glucose levels (and body weight) of the two different groups were examined. […] The group fed on the high fat diet clearly developed a hyperglycemic condition. The difference in body mass was also clearly significant.
Each of the two groups were then further separated into two subgroups (n=5). For the high fat diet group, the separation of the animals from the hyperglycemic/high fat diet group into two sub-groups was normalized based on the blood glucose levels. One group, designated as high fat-D, were treated with a dopamine reuptake inhibitor (3-(phenylpropyl)-sydnonimine-N-phenylcarbamoyl), the other group, designated as high fat-N were treated with vehicle (30% captosol, 1% Tween (Tween® 20, a polyoxyethylene sorbitan esters available from Sigma) and 1% 1N HCl in H2O; hereafter referred to as vehicle). For the normal chow group, the separation was random but similarly designated and separated into drug treated (Normal-D) and vehicle controls (Normal-N). […]

FVB strain of mice [2] = experiment: Home-cage health and behavior; settings: high-fat-diet-drug-treated group, in contrast to the high-fat-diet-vehicle-treated group
Source text: Home-cage health and behavior—This is not a […] measurement but the behavior pattern that we noticed during the study. All 4 groups of animals were housed in pairs or trios according to stratification of either treated with drug or vehicle. For three of the 4 groups, e.g. Normal Diet-drug-treated, Normal Diet-vehicle-treated, and high-fat-diet-drug-treated, the animals appear to be healthy, were docile to handlers and non-aggressive with each other. However the high-fat-diet-vehicle-treated group started to develop underbelly lesions, bite marks, and aggressive behavior towards littermates. This pattern of behavior became especially noticeable after overnight fasting (in order for fasting blood glucose level). In fact, after the above mentioned second examination (examination of fasting blood glucose level after 4 weeks of drug treatment), one of the mice in the high-fat-diet-vehicle-treated group had to be euthanized due to wounds and lesions. The remainders (of the four mice) were subsequently housed individually. These changes of behavior patterns and or behavior oddities are likely indicative of neurological changes under pre-diabetic or diabetic conditions.

FVB strain of mice [3] = experiment: Mediation of diabetic-induced hypoalgesia (Hot-plate assay); settings: for (Mean − Mean0)/Std0 (Wilcoxon rank sums, hot plate latency) / Score Mean (Wilcoxon rank sums, hot plate latency) / Score Sum (Wilcoxon rank sums, hot plate latency): hot plate 48° C.
Procedure: Mediation of diabetic-induced hypoalgesia (Hot-plate assay)—Mice were brought to the testing room and acclimatized for an hour before test. Pain reflexes in response to a thermal stimulus are measured using a Hot Plate Analgesia Meter from Harvard Apparatus. The plate surface was maintained at 48° C. that was measured by a built-in digital thermometer. Mice were placed on the hot plate which is surrounded by a clear acrylic cage with the Start/Stop trigger on the timer. […] For each subject, the test was performed three times with about 30 minute rest between tests. Animals were tested one at a time and were not habituated to the apparatus prior to testing.

FVB strain of mice [4] = experiment: Mediation of diabetic hypoalgesia (Tail-flick assay); settings: for (Mean − Mean0)/Std0 (Wilcoxon rank sums, tail-flick latency) / Score Mean (Wilcoxon rank sums, tail-flick latency) / Score Sum (Wilcoxon rank sums, tail-flick latency): 5.0 mg/kg p.o. an hour before test
Procedure: Mediation of diabetic hypoalgesia (Tail-flick assay)—Mice were brought to the testing room, acclimatized and administered 3-(phenylpropyl)-sydnonimine-N-phenylcarbamoyl (5.0 mg/kg; p.o.) an hour before test. Pain reflexes in response to a thermal stimulus are measured using a tail-flick analgesic meter with a built in stop-timer from Columbus Instruments. Latencies to respond for the thermal stimulation is recorder. For each subject, the test was performed three times with about 30 minute rests between tests. Animals are tested one at a time and are not habituated to the apparatus prior to testing.

SMILES: CC(Cc1ccccc1)[n+]1cc([N-]C(=O)Nc2ccccc2)on1 (centres unmarked) [3-(phenylpropyl)-sydnonimine-N-phenylcarbamoyl]
- body mass of high fat diet groups compared with Normal Diet groups (FVB strain of mice [1]): still noticeably higher than the groups on the Normal Diet regardless of the drug exposure
- blood glucose levels of drug treated groups compared with respective sham treated groups (FVB strain of mice [1]; high fat and Normal Diet groups): lower levels of blood glucose than their respective sham treated groups
- blood glucose levels of high fat diet drug treated mice compared with Normal Diet group (FVB strain of mice [1]; high fat diet, 10 mg/kg): indistinguishable from the group of mice fed a Normal Diet; also recorded: no discernable differences
- home-cage health and behavior (FVB strain of mice [2]): remained healthy, docile and playful with littermates
- thermal responses of high-fat-diet-drug-treated subjects compared with Normal Diet-vehicle-treated (hot plate) (FVB strain of mice [3]; FIG. 3): virtually no difference was observed
- effect on hypoalgesic conditions induced by diabetic conditions (hot plate test) (FVB strain of mice [3]; FIG. 3, high fat diet mice): attenuated the hypoalgesic
- (Mean − Mean0)/Std0 (Wilcoxon rank sums, hot plate latency) (FVB strain of mice [3]; High Fat-D group): −1.528
- Score Mean (Wilcoxon rank sums, hot plate latency) (FVB strain of mice [3]; High Fat-D group): 6.600
- Score Sum (Wilcoxon rank sums, hot plate latency) (FVB strain of mice [3]; High Fat-D group): 33.000
- (Mean − Mean0)/Std0 (Wilcoxon rank sums, hot plate latency) (FVB strain of mice [3]; Normal-D group): 1.898
- Score Mean (Wilcoxon rank sums, hot plate latency) (FVB strain of mice [3]; Normal-D group): 14.200
- Score Sum (Wilcoxon rank sums, hot plate latency) (FVB strain of mice [3]; Normal-D group): 71.000
- thermal responses of high-fat-diet-drug-treated subjects compared with Normal Diet-vehicle-treated (tail-flick) (FVB strain of mice [4]; FIG. 4): virtually no difference was observed
- effect on hypoalgesic conditions induced by diabetic conditions (tail-flick test) (FVB strain of mice [4]; FIG. 4, high fat diet mice): attenuated the hypoalgesic
- (Mean − Mean0)/Std0 (Wilcoxon rank sums, tail-flick latency) (FVB strain of mice [4]; High Fat-D group): −2.268
- Score Mean (Wilcoxon rank sums, tail-flick latency) (FVB strain of mice [4]; High Fat-D group): 5.000
- Score Sum (Wilcoxon rank sums, tail-flick latency) (FVB strain of mice [4]; High Fat-D group): 25.000
- (Mean − Mean0)/Std0 (Wilcoxon rank sums, tail-flick latency) (FVB strain of mice [4]; Normal-D group): −0.139
- Score Mean (Wilcoxon rank sums, tail-flick latency) (FVB strain of mice [4]; Normal-D group): 9.600
- Score Sum (Wilcoxon rank sums, tail-flick latency) (FVB strain of mice [4]; Normal-D group): 48.000
